Molecules are shown by their SMILES. Where two headings read alike, the source gives them in different places. Where only a bound is given, the exact number is not on record here.

A word on the IC50: it is the point on the concentration scale where inhibition reaches its midpoint. The low end stands for greater potency in that assay, the high end for weaker potency in that assay.

Type in all cases: biochemical
One test has as its target JAK2 (Homo sapiens (Human), UniProt O60674). The test is described as follows: Enzyme assay (Assay Example^a 1), JAK2. The following applies: ATP 100 μM.
For a further test, the target named is JAK1 (Homo sapiens (Human), UniProt P23458). The experiment in a line: Enzyme assay (Assay Example^a 1), JAK1. To be noted: ATP 100 μM.
In a further test the target is Tyk2 (Homo sapiens (Human), UniProt P29597). The experiment in a line: Enzyme assay (Assay Example^a 1), Tyk2. The following applies: ATP 100 μM.
The target in another test is JAK3 (Homo sapiens (Human), UniProt P52333). The experiment in a line: Enzyme assay (Assay Example^a 1), JAK3.
JAK3, sequence (P52333 whole entry): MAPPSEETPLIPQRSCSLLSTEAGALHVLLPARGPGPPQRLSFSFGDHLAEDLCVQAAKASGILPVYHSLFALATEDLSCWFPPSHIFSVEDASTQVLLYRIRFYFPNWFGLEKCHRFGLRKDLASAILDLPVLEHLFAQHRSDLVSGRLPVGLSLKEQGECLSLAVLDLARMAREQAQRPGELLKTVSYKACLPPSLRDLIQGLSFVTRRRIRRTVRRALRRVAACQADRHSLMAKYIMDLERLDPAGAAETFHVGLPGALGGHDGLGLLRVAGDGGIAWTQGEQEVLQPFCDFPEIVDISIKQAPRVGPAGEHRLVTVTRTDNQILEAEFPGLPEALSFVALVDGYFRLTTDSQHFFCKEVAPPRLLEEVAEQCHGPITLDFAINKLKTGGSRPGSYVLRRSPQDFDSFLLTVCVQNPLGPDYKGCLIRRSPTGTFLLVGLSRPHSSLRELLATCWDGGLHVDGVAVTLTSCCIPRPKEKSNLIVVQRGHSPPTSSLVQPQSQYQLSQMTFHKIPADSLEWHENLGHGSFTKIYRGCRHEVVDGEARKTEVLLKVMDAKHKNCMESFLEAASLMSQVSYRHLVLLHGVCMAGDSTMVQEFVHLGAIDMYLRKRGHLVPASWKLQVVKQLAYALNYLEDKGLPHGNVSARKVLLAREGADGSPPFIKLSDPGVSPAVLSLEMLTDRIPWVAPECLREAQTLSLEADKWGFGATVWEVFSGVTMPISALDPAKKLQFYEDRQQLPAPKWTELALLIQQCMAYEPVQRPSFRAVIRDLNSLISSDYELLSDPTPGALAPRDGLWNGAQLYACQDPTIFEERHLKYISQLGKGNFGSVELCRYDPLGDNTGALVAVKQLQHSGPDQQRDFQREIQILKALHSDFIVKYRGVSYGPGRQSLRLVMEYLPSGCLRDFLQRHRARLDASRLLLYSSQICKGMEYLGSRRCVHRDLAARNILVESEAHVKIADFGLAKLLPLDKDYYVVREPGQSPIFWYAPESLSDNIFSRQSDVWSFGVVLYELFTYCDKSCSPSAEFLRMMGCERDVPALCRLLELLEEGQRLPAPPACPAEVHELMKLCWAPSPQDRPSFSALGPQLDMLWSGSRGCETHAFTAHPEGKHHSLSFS

Tyk2, sequence (P29597 whole entry): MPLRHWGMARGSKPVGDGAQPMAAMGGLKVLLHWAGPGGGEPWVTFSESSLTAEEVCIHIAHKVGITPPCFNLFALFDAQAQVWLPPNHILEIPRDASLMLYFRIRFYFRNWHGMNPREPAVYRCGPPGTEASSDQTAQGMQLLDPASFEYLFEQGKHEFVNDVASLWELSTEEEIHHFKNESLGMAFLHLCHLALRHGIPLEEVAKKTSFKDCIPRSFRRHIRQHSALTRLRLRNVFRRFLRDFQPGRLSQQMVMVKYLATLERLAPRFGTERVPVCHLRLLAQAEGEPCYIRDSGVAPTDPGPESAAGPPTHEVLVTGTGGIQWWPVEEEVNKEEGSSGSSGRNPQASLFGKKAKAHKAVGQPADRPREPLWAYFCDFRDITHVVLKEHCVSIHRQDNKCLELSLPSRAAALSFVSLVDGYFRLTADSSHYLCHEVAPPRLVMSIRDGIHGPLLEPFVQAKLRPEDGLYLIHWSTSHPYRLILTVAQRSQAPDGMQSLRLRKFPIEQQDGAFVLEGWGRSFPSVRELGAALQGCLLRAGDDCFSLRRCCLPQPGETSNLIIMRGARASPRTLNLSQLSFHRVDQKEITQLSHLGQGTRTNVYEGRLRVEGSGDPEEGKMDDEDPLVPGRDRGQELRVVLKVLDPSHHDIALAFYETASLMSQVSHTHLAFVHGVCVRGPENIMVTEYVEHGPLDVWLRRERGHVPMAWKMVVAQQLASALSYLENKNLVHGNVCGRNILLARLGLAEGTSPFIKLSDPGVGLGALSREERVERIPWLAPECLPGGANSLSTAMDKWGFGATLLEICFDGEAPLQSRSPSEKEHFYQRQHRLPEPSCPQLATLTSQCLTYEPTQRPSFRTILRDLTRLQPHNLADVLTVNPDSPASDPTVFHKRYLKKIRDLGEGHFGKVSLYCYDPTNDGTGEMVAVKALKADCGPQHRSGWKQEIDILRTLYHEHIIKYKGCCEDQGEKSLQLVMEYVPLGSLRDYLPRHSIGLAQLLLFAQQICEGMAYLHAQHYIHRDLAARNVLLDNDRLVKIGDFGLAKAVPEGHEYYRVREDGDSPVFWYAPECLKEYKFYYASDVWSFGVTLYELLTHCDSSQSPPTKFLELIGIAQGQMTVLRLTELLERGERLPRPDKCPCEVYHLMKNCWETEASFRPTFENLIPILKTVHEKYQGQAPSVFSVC

Turning to `O=C1CN(C[C@H]2CC[C@H](c3nnn4cnc5[nH]ccc5c34)CC2)CCN1` [compound 260, 4-{[trans-4-(7H-pyrrolo[3,2-e][1,2,3]triazolo[1,5-c]pyrimidin-1-yl)cyclohexyl]methyl}piperazin-2-one], the IC50 was 0.048 µM against JAK2, 0.024 µM at JAK1, 0.97 µM against Tyk2 and over 1 µM at JAK3 (ATP 100 μM).

On to `NC(=O)C1CCN(C[C@H]2CC[C@H](c3nnn4cnc5[nH]ccc5c34)CC2)CC1` [compound 261, 1-{[trans-4-(7H-pyrrolo[3,2-e][1,2,3]triazolo[1,5-c]pyrimidin-1-yl)cyclohexyl]methyl}piperidine-4-carboxamide], for which the IC50 against JAK2 is 0.091 µM; against JAK1, 0.023 µM; against Tyk2, 0.64 µM; against JAK3 (ATP 100 μM) it was over 1 µM.

Take `N#Cc1ccc(NC[C@H]2CC[C@H](c3nnn4cnc5[nH]ccc5c34)CC2)cc1C#N` [compound 262, 4-({[trans-4-(7H-pyrrolo[3,2-e][1,2,3]triazolo[1,5-c]pyrimidin-1-yl)cyclohexyl]methyl}amino)phthalonitrile]: the IC50 turned out to be 0.045 µM against JAK2, 0.0047 µM on JAK1, 0.91 µM against Tyk2 and 0.59 µM at JAK3 (ATP 100 μM).

In the case of `N#Cc1cc(NC[C@H]2CC[C@H](c3nnn4cnc5[nH]ccc5c34)CC2)ccc1Cl` [compound 263, 5-({[trans-4-(7H-pyrrolo[3,2-e][1,2,3]triazolo[1,5-c]pyrimidin-1-yl)cyclohexyl]methyl}amino)-2-chlorobenzonitrile], the IC50 is 0.22 µM at JAK2, 0.027 µM at JAK1, over 1 µM against Tyk2 and over 1 µM against JAK3 (ATP 100 μM).

For `N#CCc1ccc(NC[C@H]2CC[C@H](c3nnn4cnc5[nH]ccc5c34)CC2)cc1` [compound 264, 2-[4-({[trans-4-(7H-pyrrolo[3,2-e][1,2,3]triazolo[1,5-c]pyrimidin-1-yl)cyclohexyl]methyl}amino)phenyl]acetonitrile], the IC50 on JAK2 was 0.032 µM; against JAK1 it was 0.011 µM; against Tyk2, over 1 µM; on JAK3 (ATP 100 μM), over 1 µM.

Regarding `OC[C@H]1CCCN1C[C@H]1CC[C@H](c2nnn3cnc4[nH]ccc4c23)CC1` [compound 265, ((R)-1-{[trans-4-(7H-pyrrolo[3,2-e][1,2,3]triazolo[1,5-c]pyrimidin-1-yl)cyclohexyl]methyl}pyrrolidin-2-yl)methanol], the IC50 at JAK2 was 0.18 µM; at JAK1, 0.046 µM; against Tyk2, over 1 µM; on JAK3 (ATP 100 μM), over 1 µM.

As for `OC[C@@H]1CCCN1C[C@H]1CC[C@H](c2nnn3cnc4[nH]ccc4c23)CC1` [compound 266, ((S)-1-{[trans-4-(7H-pyrrolo[3,2-e][1,2,3]triazolo[1,5-c]pyrimidin-1-yl)cyclohexyl]methyl}pyrrolidin-2-yl)methanol], the IC50 against JAK2 was 0.11 µM; against JAK1, 0.025 µM; at Tyk2, 0.35 µM; at JAK3 (ATP 100 μM), over 1 µM.

Turning to `FC(F)(Br)CNC[C@H]1CC[C@H](c2nnn3cnc4[nH]ccc4c23)CC1` [compound 269, N-{[trans-4-(7H-pyrrolo[3,2-e][1,2,3]triazolo[1,5-c]pyrimidin-1-yl)cyclohexyl]methyl}-2-bromo-2,2-difluoroethanamine], the IC50 against JAK2 came out at 0.012 µM; against JAK1 it was 0.0013 µM; on Tyk2, 0.1 µM; at JAK3, 0.057 µM.

As for `COc1ccc(CNC[C@H]2CC[C@H](c3nnn4cnc5[nH]ccc5c34)CC2)cc1` [compound 270, 1-[trans-4-(7H-pyrrolo[3,2-e][1,2,3]triazolo[1,5-c]pyrimidin-1-yl)cyclohexyl]-N-(4-methoxybenzyl)methanamine], the IC50 stood at 0.1 µM at JAK2, 0.012 µM against JAK1, 0.0048 µM against Tyk2 and 0.75 µM on JAK3 (ATP 100 μM).

As for `OC1CCN(C[C@H]2CC[C@H](c3nnn4cnc5[nH]ccc5c34)CC2)CC1` [compound 271, 1-{[trans-4-(7H-pyrrolo[3,2-e][1,2,3]triazolo[1,5-c]pyrimidin-1-yl)cyclohexyl]methyl}piperidin-4-ol], the IC50 is 0.063 µM at JAK2, 0.02 µM against JAK1, 0.43 µM on Tyk2 and over 1 µM against JAK3 (ATP 100 μM).

For the compound `OCCNC[C@H]1CC[C@H](c2nnn3cnc4[nH]ccc4c23)CC1` [compound 272, 2-({[trans-4-(7H-pyrrolo[3,2-e][1,2,3]triazolo[1,5-c]pyrimidin-1-yl)cyclohexyl]methyl}amino)ethanol], the IC50 at JAK2 stood at 0.053 µM; against JAK1, 0.0035 µM; against Tyk2 it was 0.094 µM; on JAK3 (ATP 100 μM), 0.43 µM.

For the compound `O=C1COc2cc(NC[C@H]3CC[C@H](c4nnn5cnc6[nH]ccc6c45)CC3)ccc2N1` [compound 273, 7-({[trans-4-(7H-pyrrolo[3,2-e][1,2,3]triazolo[1,5-c]pyrimidin-1-yl)cyclohexyl]methyl}amino)-2H-benzo[b][1,4]oxazin-3(4H)-one], the IC50 on JAK2 amounted to 0.021 µM; against JAK1, 0.0046 µM; on Tyk2, 0.24 µM; against JAK3 (ATP 100 μM), 0.57 µM.

For `O=C1COc2ccc(NC[C@H]3CC[C@H](c4nnn5cnc6[nH]ccc6c45)CC3)cc2N1` [compound 274, 6-({[trans-4-(7H-pyrrolo[3,2-e][1,2,3]triazolo[1,5-c]pyrimidin-1-yl)cyclohexyl]methyl}amino)-2H-benzo[b][1,4]oxazin-3(4H)-one], the IC50 against JAK2 was 0.029 µM; at JAK1, 0.0035 µM; against Tyk2, 0.2 µM; against JAK3 (ATP 100 μM), over 1 µM.

On to `FC1(F)Oc2ccc(NC[C@H]3CC[C@H](c4nnn5cnc6[nH]ccc6c45)CC3)cc2O1` [compound 275, N-{[trans-4-(7H-pyrrolo[3,2-e][1,2,3]triazolo[1,5-c]pyrimidin-1-yl)cyclohexyl]methyl}-2,2-difluorobenzo[d][1,3]dioxol-5-amine], for which the IC50 was 0.065 µM at JAK2, 0.0067 µM against JAK1, 0.52 µM on Tyk2 and 0.85 µM against JAK3 (ATP 100 μM).

As for `O=C(O)C1CN(C[C@H]2CC[C@H](c3nnn4cnc5[nH]ccc5c34)CC2)C1` [compound 278, 1-{[trans-4-(7H-pyrrolo[3,2-e][1,2,3]triazolo[1,5-c]pyrimidin-1-yl)cyclohexyl]methyl}azetidine-3-carboxylic acid], the IC50 against JAK2 was 0.034 µM; on JAK1 it was 0.0043 µM; against Tyk2, 0.4 µM; at JAK3 (ATP 100 μM), 0.45 µM.

In the case of `O=C1OCCC1NC[C@H]1CC[C@H](c2nnn3cnc4[nH]ccc4c23)CC1` (stereo partly drawn) [compound 279, 3-({[trans-4-(7H-pyrrolo[3,2-e][1,2,3]triazolo[1,5-c]pyrimidin-1-yl)cyclohexyl]methyl}amino)dihydrofuran-2(3H)-one], the IC50 against JAK2 was found to be 0.044 µM; at JAK1, 0.0074 µM; at Tyk2, 0.2 µM; at JAK3 (ATP 100 μM), 0.53 µM.

For the compound `c1cc2c(ncn3nnc([C@H]4CC[C@H](CNC5CC5)CC4)c23)[nH]1` [compound 280, N-{[trans-4-(7H-pyrrolo[3,2-e][1,2,3]triazolo[1,5-c]pyrimidin-1-yl)cyclohexyl]methyl}cyclopropanamine], the IC50 against JAK2 amounted to 0.062 µM; against JAK1, 0.0019 µM; on Tyk2 it was 0.1 µM; on JAK3 (ATP 100 μM) it was 0.68 µM.

The record behind these values is patent US9216999B2, “Substituted pyrrolo[2,3-h][1,6]naphthyridines and compositions thereof as JAK inhibitors” (priority 2011, dated 2015).
